Measurements published in patent US8404692B2, “Pyrimidin-4-yl-3, 4-dihydro-2H-pyrrolo [1,2A] pyrazin-1-one compounds” (Cyclacel Limited, priority 2005, dated 2013).

What follows are compounds tested against T1, aurora-A (human) (Homo sapiens, UniProt O14965) (assay: Aurora-A (human) kinase assay). Settings: read-out: Activity (Aurora A activity, IC50 grading).
T1 construct: purchased Upstate, Dundee, UK
T1 sequence (O14965 1-403): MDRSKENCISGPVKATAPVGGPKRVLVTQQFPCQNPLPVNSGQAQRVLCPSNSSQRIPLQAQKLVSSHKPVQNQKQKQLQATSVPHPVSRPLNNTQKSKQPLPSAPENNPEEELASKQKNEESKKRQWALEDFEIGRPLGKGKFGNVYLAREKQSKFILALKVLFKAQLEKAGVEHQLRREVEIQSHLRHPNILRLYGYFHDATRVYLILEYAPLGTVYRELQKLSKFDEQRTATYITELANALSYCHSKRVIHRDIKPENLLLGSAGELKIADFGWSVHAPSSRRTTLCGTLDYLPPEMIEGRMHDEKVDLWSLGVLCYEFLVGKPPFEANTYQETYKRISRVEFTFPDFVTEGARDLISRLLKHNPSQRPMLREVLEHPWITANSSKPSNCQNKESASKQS
Format: biochemical
Procedure, shortened: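 Radiometric assay measuring [γ-32P] transfer from 100 μM ATP to 500 μM Kemptide by 2-5 ng active human aurora-A, pH 7.5 buffer, 30 min at 30° C. Incorporated label captured on P81 filters and counted by scintillation; IC50 from curve fitting.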

IC50 [nM] | Structure (SMILES)
< 1000 | Cc1c(-c2ccnc(Nc3cccc(CCC(=O)N(C)CCN(C)C)c3)n2)c(C)n2c1C(=O)NCC2 [Example I-106, N-(2-Dimethylamino-ethyl)-3-{3-[4-(6,8-dimethyl-1-oxo-1,2,3,4-tetrahydro-pyrrolo[1,2-a]pyrazin-7-yl)-pyrimidin-2-ylamino]-phenyl}-N-methyl-propionamide]
< 1000 | Cc1c(-c2ccnc(Nc3cccc(CCC(=O)N(C)CCCN(C)C)c3)n2)c(C)n2c1C(=O)NCC2 [Example I-107, N-(3-Dimethylamino-propyl)-3-{3-[4-(6,8-dimethyl-1-oxo-1,2,3,4-tetrahydro-pyrrolo[1,2-a]pyrazin-7-yl)-pyrimidin-2-ylamino]-phenyl}-N-methyl-propionamide]
< 100 | Cc1c(-c2ccnc(Nc3cccc(CCC(=O)N4CCOCC4)c3)n2)c(C)n2c1C(=O)NCC2 [Example I-108, 6,8-Dimethyl-7-{2-[3-(3-morpholin-4-yl-3-oxo-propyl)-phenylamino]-pyrimidin-4-yl}-3,4-dihydro-2H-pyrrolo[1,2-a]pyrazin-1-one]
< 1000 | CC(=O)N1CCN(C(=O)CCc2cccc(Nc3nccc(-c4c(C)c5n(c4C)CCNC5=O)n3)c2)CC1 [Example I-109, 7-(2-{3-[3-(4-Acetyl-piperazin-1-yl)-3-oxo-propyl]-phenylamino}-pyrimidin-4-yl)-6,8-dimethyl-3,4-dihydro-2H-pyrrolo[1,2-a]pyrazin-1-one]
< 1000 | Cc1c(-c2ccnc(Nc3cccc(CCC(=O)N4CCN(C)CC4)c3)n2)c(C)n2c1C(=O)NCC2 [Example I-110, 6,8-Dimethyl-7-(2-{3-[3-(4-methyl-piperazin-1-yl)-3-oxo-propyl]-phenylamino}-pyrimidin-4-yl)-3,4-dihydro-2H-pyrrolo[1,2-a]pyrazin-1-one]
< 100 | Cc1c(-c2ccnc(Nc3cccc(CCC(N)=O)c3)n2)c(C)n2c1C(=O)NCC2 [Example I-111, 3-{3-[4-(6,8-Dimethyl-1-oxo-1,2,3,4-tetrahydro-pyrrolo[1,2-a]pyrazin-7-yl)-pyrimidin-2-ylamino]-phenyl}-propionamide]
< 100 | CNC(=O)CCc1cccc(Nc2nccc(-c3c(C)c4n(c3C)CCNC4=O)n2)c1 [Example I-112, 3-{3-[4-(6,8-Dimethyl-1-oxo-1,2,3,4-tetrahydro-pyrrolo[1,2-a]pyrazin-7-yl)-pyrimidin-2-ylamino]-phenyl}-N-methyl-propionamide]
< 100 | Cc1c(-c2ccnc(Nc3cccc(CCC(=O)N(C)C)c3)n2)c(C)n2c1C(=O)NCC2 [Example I-113, 3-{3-[4-(6,8-Dimethyl-1-oxo-1,2,3,4-tetrahydro-pyrrolo[1,2-a]pyrazin-7-yl)-pyrimidin-2-ylamino]-phenyl}-N,N-dimethyl-propionamide]
< 10000 | COc1cc(C(=O)NC2CCN(C)CC2)ccc1Nc1nccc(-c2c(C)c3n(c2C)CCNC3=O)n1 [Example I-114, 4-[4-(6,8-Dimethyl-1-oxo-1,2,3,4-tetrahydro-pyrrolo[1,2-a]pyrazin-7-yl)-pyrimidin-2-ylamino]-3-methoxy-N-(1-methyl-piperidin-4-yl)-benzamide]
< 100 | Cc1c(-c2ccnc(Nc3ccc(C(=O)NC4CCN(C)CC4)cc3)n2)c(C)n2c1C(=O)NCC2 [Example I-115, 4-[4-(6,8-Dimethyl-1-oxo-1,2,3,4-tetrahydro-pyrrolo[1,2-a]pyrazin-7-yl)-pyrimidin-2-ylamino]-N-(1-methyl-piperidin-4-yl)-benzamide]
